Laboratory results from US20210196654A1, “METHOD OF TREATING CONDITIONS” (Clexio Biosciences Ltd., priority 2019, published 2021).
Where two headings read alike, the source gives them in different places.

What was measured:
[1] = tested on: human peripheral blood lymphocytes (HPBL); conditions: for structural or numerical (polyploid or endoreduplicated cells) aberrations: non-activated 4 and 20-hour exposure, 60, 120, 238 μg/mL
Procedure: The clastogenic potential of esketamine was evaluated in the in vitro mammalian chromosome aberration test using human peripheral blood lymphocytes (HPBL) in both the absence and presence of an induced metabolic activation system (the 9000 g supernatant [S9] microsomal fraction of liver homogenate from rats exposed to Aroclor-1254).
The study was conducted in 2 phases, with a preliminary toxicity test used to determine the appropriate concentrations for the definitive chromosomal aberration assay. Water was used as a negative (vehicle) control. Toxicity (defined as >45% reduction in MI relative to the vehicle control) was evaluated at 9 concentrations, ranging from 0.0238 to 238 μg/ml, after exposure of HPBL to esketamine for 20 hours in the absence of S9 activation, or for 4 hours, either in the presence or absence of S9 activation, followed by a 16-hour recovery period.
The definitive chromosome aberration assay evaluated HPBL cells after exposure to esketamine for 20 hours in the absence of S9 activation, or for 4 hours, either in the presence of absence of S9 activation, followed by a 16-hour recovery. Positive controls for chromosomal aberrations in non-activated and S9-activated evaluations, respectively, consisted of mitomycin C (MMC, 0.6 and 0.3 μg/mL for the 4- and 20-hour exposures, respectively) and cyclophosphamide (CP, 2.5, 5, and 7.5 μg/mL). […] Initially, the doses selected for evaluation of chromosomal aberrations were 60, 120, and 238 μg/mL for the non-activated 4- and 20-hour treatment conditions; and 30, 60, and 200 μg/mL for the S9-activated 4-hour treatment condition.

male Sprague Dawley rats = assay: 7-day forced swim test; format: in vivo, rat; conditions: for decrease in immobility time: 7 daily doses, test 30 min after dosing
Procedure: Groups of, 6-7 week old, male Sprague Dawley rats were administered esketamine by intraperitoneal injection and their behavioral despair assessed by a forced swim test. The animals, in cohorts of 10, were administered either a single dose of 15mg/kg esketamine, 7 daily doses of either 7.5 or 15 mg/kg esketamine or a vehicle control, and the test performed 30 minutes after dosing. Statistical evaluation was performed using an ordinary One-Way ANOVA, t Test and an Uncorrected Fisher's LSD comparisons test.

[2] = Single dose crossover study in healthy volunteers, pharmacokinetics; conditions: both, human, plasma; for AUC(0-inf): AUC0-inf; for AUC(0-inf) / AUC(0-t) / Cmax: geometric mean; for AUC(0-t): AUC0-t; for Cmax: 15 subjects; for half-life: t1/2, geometric mean; for Tmax: median
Excerpt: A randomized, open-label 4-way crossover study in 16 healthy male and female subjects was held wherein said subjects were placed in a randomly assigned order and administered esketamine. Each subject was assigned to 1 of 4 treatment sequences according to a randomization code such that 4 subjects were assigned to each treatment sequence. There was a wash-out period of at least 7 days between dosing periods with doses consisting of either oral or intravenous esketamine hydrochloride. The study consisted of an eligibility screening period of 28 days, 4 study periods involving administration of a single dose of esketamine hydrochloride followed by safety assessments with blood sampling for PK purposes up to 72 hours after study drug administration, discharge at 72 hours after study drug administration and a follow-up visit 7-14 days after the last PK blood sample was taken on Day 4.

[3] = Oye et al (1992); cited from earlier work
[4] = iv, 0.3 mg/kg, plasma analyte after single dose esketamine 0.3 mg/kg iv
[5] = po, 20 mg, plasma analyte after single dose esketamine 20 mg oral solution
[6] = po, 20 mg, plasma analyte after single dose esketamine 20 mg oral tablet
[7] = po, 100 mg, plasma analyte after single dose esketamine 100 mg oral tablet

Structure (SMILES): CN[C@]1(c2ccccc2Cl)CCCCC1=O [esketamine, (2S)-2-(2-Chlorophenyl)-2-(methylamino) cyclohexanone]
- Cochran-Armitage test, structural aberrations [1]: positive for a dose response
- Toxicity (>45% reduction in MI relative to vehicle control), preliminary toxicity test [1]: not observed at any dose
- induction of structural chromosomal aberrations [1]: positive
- doses at which cytotoxicity was observed ([1]; human): > 200 µg/mL
- cytotoxicity (>45% reduction in mitotic index), chromosomal aberration assay ([1]; non-activated 4- and 20-hour treatment): not observed at any esketamine dose
- structural or numerical (polyploid or endoreduplicated cells) aberrations [1]: no significant or dose-dependent increases
- structural or numerical (polyploid or endoreduplicated cells) aberrations ([1]; listed as Esketamine): negative
- decrease in immobility time (male Sprague Dawley rats; 7.5 mg/kg ip): 40%
- decrease in immobility time (male Sprague Dawley rats; 15 mg/kg ip): 60%
- extent of effect on immobility time (male Sprague Dawley rats; 15 mg/kg ip, single acute dose): 42 % of control
- antidepressant-like effect, continuous 7-day treatment vs single dose (male Sprague Dawley rats; same dose levels): stronger antidepressant-like effect than a single acute dose
- AUC(0-inf) [2, 4]: 257 ng·h/mL
- AUC(0-t) [2, 4]: 249 ng·h/mL
- Cmax [2, 4]: 94.5 ng/mL
- half-life [2, 4]: 10.2 h
- Tmax [2, 4]: 1 h
- AUC(0-inf) [2, 5]: 25.8 ng·h/mL
- AUC(0-inf) [2, 6]: 22.5 ng·h/mL
- AUC(0-t) [2, 5]: 23.4 ng·h/mL
- AUC(0-t) [2, 6]: 20.1 ng·h/mL
- Cmax [2, 5]: 16.5 ng/mL
- Cmax [2, 6]: 11.9 ng/mL
- half-life [2, 5]: 2.91 h
- half-life [2, 6]: 2.84 h
- Tmax [2, 5]: 0.5 h
- Tmax [2, 6]: 0.75 h
- AUC(0-inf) [2, 7]: 181 ng·h/mL
- AUC(0-t) [2, 7]: 173 ng·h/mL
- Cmax [2, 7]: 65.3 ng/mL
- half-life [2, 7]: 7.66 h
- Tmax [2, 7]: 0.75 h
- potency relative to (R)-ketamine in reducing pain perception and in causing auditory and visual disturbances [3]: 4 times
